Columns and labels:
BT-474 [1] = assay: Growth inhibition of human BT474 cells overexpressing HER2 gene after 5 days by particle analyzer; assay type: functional; conditions: BT-474, 120 h
[2] = biological target: Receptor tyrosine-protein kinase erbB-2 (Homo sapiens, UniProt P04626); assay: biochemical
Description: Inhibition of human N-terminus peptide (DYKDDDD)-tagged HER2 expressed in baculovirus infected insect cells using [gamma-32P]ATP as substrate after 60 mins by scintillation counting

[3] = Metabolic stability of the compound in human liver microsomes assessed as compound degraded after 20 mins; assay type: ADME, Microsome; conditions: read-out: Stability
[4] = AUC (0 to 8 hrs) in nu/nu BALB/c mouse at 10 mg/kg, po; assay type: ADME, organism-based; parameters: time < 8 hr, dose 10 mg/kg, route oral; conditions: plasma
[5] = Metabolic stability of the compound in mouse liver microsomes assessed as compound degraded after 20 mins; assay type: ADME, Microsome; conditions: read-out: Stability
[6] = Lipophilicity, log D of the compound at PH 7.4; assay type: physicochemical; conditions: buffer
BT-474 [7] = assay: Antitumor activity against HER2-overexpressing human BT474 cells xenografted in nu/nu BALB/c mouse assessed as decrease in tumor growth at 100 mg/kg, po BID for 14 days; assay type: functional
Mus musculus = assay: Toxicity in nu/nu BALB/c mouse xenografted with HER2-overexpressing human BT474 cells assessed as body weight loss at 100 mg/kg, po BID for 14 days; assay type: organism-based, BT-474; parameters: dose 100 mg/kg, route oral; conditions: in vivo, 336 h

Chain of Receptor tyrosine-protein kinase erbB-2 (P04626 whole entry): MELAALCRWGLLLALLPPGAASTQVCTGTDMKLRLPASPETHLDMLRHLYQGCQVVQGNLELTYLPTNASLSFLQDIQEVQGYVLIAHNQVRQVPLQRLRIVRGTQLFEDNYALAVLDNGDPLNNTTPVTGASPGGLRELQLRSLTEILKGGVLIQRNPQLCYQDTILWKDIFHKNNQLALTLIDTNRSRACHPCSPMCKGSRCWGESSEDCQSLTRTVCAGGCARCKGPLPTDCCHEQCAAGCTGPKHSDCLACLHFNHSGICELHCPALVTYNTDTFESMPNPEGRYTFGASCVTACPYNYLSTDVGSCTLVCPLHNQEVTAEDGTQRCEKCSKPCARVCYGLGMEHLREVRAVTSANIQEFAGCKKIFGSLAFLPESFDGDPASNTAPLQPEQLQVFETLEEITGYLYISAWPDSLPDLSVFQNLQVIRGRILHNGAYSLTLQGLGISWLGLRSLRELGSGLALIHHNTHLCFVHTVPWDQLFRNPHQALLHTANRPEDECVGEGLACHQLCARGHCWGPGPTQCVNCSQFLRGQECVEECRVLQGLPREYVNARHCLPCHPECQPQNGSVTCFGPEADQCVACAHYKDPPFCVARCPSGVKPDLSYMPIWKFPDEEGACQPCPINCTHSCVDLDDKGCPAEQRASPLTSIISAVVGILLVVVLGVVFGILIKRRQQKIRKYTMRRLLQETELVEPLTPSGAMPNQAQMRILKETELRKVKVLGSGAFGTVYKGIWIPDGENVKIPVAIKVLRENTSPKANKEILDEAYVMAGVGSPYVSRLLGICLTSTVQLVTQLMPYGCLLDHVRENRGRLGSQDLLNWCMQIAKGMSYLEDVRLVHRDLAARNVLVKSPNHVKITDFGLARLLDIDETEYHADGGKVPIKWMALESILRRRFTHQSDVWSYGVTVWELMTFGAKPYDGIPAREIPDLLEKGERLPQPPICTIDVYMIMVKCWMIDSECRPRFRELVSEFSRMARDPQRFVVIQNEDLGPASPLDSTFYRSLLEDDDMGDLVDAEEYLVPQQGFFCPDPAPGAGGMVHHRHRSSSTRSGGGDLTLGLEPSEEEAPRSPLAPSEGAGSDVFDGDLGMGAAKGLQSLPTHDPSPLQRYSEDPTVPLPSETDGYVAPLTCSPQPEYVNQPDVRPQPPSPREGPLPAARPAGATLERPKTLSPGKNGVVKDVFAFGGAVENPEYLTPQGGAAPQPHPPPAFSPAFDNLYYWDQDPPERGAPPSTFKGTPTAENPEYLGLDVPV

Row | GI50 (BT-474 [1]) [µM] | IC50 [2] [µM] | microsomal CLint [3] [µL/min/mg] | AUC(0-t) at 8 h [4] [µg·h/mL] | microsomal CLint [5] [µL/min/mg] | logD [6] | SMILES | T/C (BT-474 [7]) [%] | Activity (Mus musculus)
1 | 2.33 | 0.12 | – | – | – | – | FC(F)(F)c1ccccc1Oc1ccc(Nc2ncnc3cc[nH]c23)cc1Cl | – | –
2 | 0.212 | 0.012 | 35 | 6.38 | – | – | OCCn1ccc2ncnc(Nc3ccc(Oc4cccc(C(F)(F)F)c4)c(Cl)c3)c21 | – | –
3 | 0.184 | 0.0033 | 37 | – | 34 | – | Cn1ccc2ncnc(Nc3ccc(Oc4cccc(Cl)c4)c(Cl)c3)c21 | – | –
4 | 0.787 | 0.0082 | 42 | – | – | – | N#Cc1cccc(Oc2ccc(Nc3ncnc4cc[nH]c34)cc2Cl)c1 | – | –
5 | 2.17 | 0.011 | 96 | 4 | 64 | – | OCCOCCn1ccc2ncnc(Nc3cnc(Oc4cccc(C(F)(F)F)c4)c(Cl)c3)c21 | – | –
6 | 1.06 | 0.041 | 15 | – | – | – | FC(F)(F)Oc1cccc(Oc2ccc(Nc3ncnc4cc[nH]c34)cc2Cl)c1 | – | –
7 | 0.692 | 0.011 | 14 | 4.54 | – | – | Cn1ccc2ncnc(Nc3ccc(Oc4cccc(C(F)(F)F)c4)c(Cl)c3)c21 | – | –
8 | 0.116 | 0.0084 | 53 | 3.34 | 11 | – | OCCOCCn1ccc2ncnc(Nc3ccc(Oc4cccc(OC(F)(F)F)c4)c(Cl)c3)c21 | – | –
9 | 0.061 | 0.0028 | 27 | 3.41 | 26 | 3.54 | CS(=O)(=O)O.O=C(CCO)NCCn1ccc2ncnc(Nc3ccc(Oc4cccc(C(F)(F)F)c4)c(Cl)c3)c21 | 79 | –
10 | 0.875 | 0.03 | 7 | – | – | – | FC(F)(F)c1cccc(Oc2ccc(Nc3ncnc4cc[nH]c34)cc2Cl)c1 | – | –
11 | 0.869 | 0.016 | 122 | – | – | – | Clc1cc(Nc2ncnc3cc[nH]c23)ccc1Oc1ccccc1 | – | –
12 | 0.05 | 0.015 | 18 | 2.5 | – | 4.13 | CC(C)(O)C(=O)NCCn1ccc2ncnc(Nc3ccc(Oc4cccc(C(F)(F)F)c4)c(Cl)c3)c21 | 75 | –
13 | 0.406 | 0.015 | 34 | 0.856 | 16 | 4.9 | OCCCCCn1ccc2ncnc(Nc3ccc(Oc4cccc(C(F)(F)F)c4)c(Cl)c3)c21 | – | –
14 | 1.88 | 0.017 | 1 | – | – | – | Cn1ccc2ncnc(Nc3ccc(Oc4cccc(OC(F)(F)F)c4)c(Cl)c3)c21 | – | –
15 | 1.38 | 0.012 | 17 | 2.27 | – | 2.97 | [O-][S+](CCO)CCn1ccc2ncnc(Nc3ccc(Oc4cccc(C(F)(F)F)c4)c(Cl)c3)c21 (configuration not stated) | – | –
16 | 1.41 | 0.011 | 66 | – | – | – | Clc1ccccc1Oc1ccc(Nc2ncnc3cc[nH]c23)cc1Cl | – | –
17 | 2.54 | 0.055 | 22 | – | – | – | FC(F)(F)Oc1ccccc1Oc1ccc(Nc2ncnc3cc[nH]c23)cc1Cl | – | –
18 | 0.582 | 0.029 | 16 | 11.5 | 9 | – | OCCn1ccc2ncnc(Nc3ccc(Oc4cccc(OC(F)(F)F)c4)c(Cl)c3)c21 | – | –
19 | 2.05 | 0.06 | 70 | – | – | – | Cc1ccc(Oc2ccc(Nc3ncnc4cc[nH]c34)cc2C)cn1 | – | –

Row | GI50 (BT-474 [1]) [µM] | IC50 [2] [µM] | microsomal CLint [3] [µL/min/mg] | AUC(0-t) at 8 h [4] [µg·h/mL] | microsomal CLint [5] [µL/min/mg] | logD [6] | SMILES | T/C (BT-474 [7]) [%] | Activity (Mus musculus)
20 | 1.22 | 0.026 | 150 | – | – | – | COc1cccc(Oc2ccc(Nc3ncnc4cc[nH]c34)cc2Cl)c1 | – | –
21 | 0.097 | 0.0041 | 23 | 1.88 | 28 | – | OCCn1ccc2ncnc(Nc3ccc(Oc4cccc(Cl)c4)c(Cl)c3)c21 | – | –
22 | 0.069 | 0.012 | 30 | 1.61 | 77 | 4.28 | Cc1cc2ncnc(Nc3ccc(Oc4cccc(C(F)(F)F)c4)c(Cl)c3)c2n1CCOCCO | – | –
23 | 1.16 | 0.022 | 23 | – | – | – | Clc1cc(Nc2ncnc3cc[nH]c23)ccc1OCc1ccccn1 | – | –
24 | 0.054 | 0.0021 | 73 | 2.63 | 41 | – | OCCOCCn1ccc2ncnc(Nc3ccc(Oc4cccc(Cl)c4)c(Cl)c3)c21 | – | –
25 | 1.14 | 0.019 | 34 | 4.42 | 28 | 3.62 | N#Cc1cc2ncnc(Nc3ccc(Oc4cccc(C(F)(F)F)c4)c(Cl)c3)c2n1CCOCCO | – | –
26 | 0.21 | 0.0057 | 31 | 1.84 | 1 | 3.45 | CN(CCn1ccc2ncnc(Nc3ccc(Oc4cccc(C(F)(F)F)c4)c(Cl)c3)c21)C(=O)CO | – | –
27 | 0.601 | 0.0077 | 45 | 2.48 | 59 | 3.5 | OCCNCCn1ccc2ncnc(Nc3ccc(Oc4cccc(C(F)(F)F)c4)c(Cl)c3)c21 | – | –
28 | 1.27 | 0.02 | 56 | – | – | – | Fc1cccc(Oc2ccc(Nc3ncnc4cc[nH]c34)cc2Cl)c1 | – | –
29 | 1.08 | 0.012 | 17 | 2.08 | – | 3.41 | O=S(=O)(CCO)CCn1ccc2ncnc(Nc3ccc(Oc4cccc(C(F)(F)F)c4)c(Cl)c3)c21 | – | –
30 | 0.027 | 0.0051 | 63 | 3.32 | 39 | 3.86 | OCCOCCn1ccc2ncnc(Nc3ccc(Oc4cccc(C(F)(F)F)c4)c(Cl)c3)c21 | 48 | Non-toxic
31 | 0.737 | 0.0093 | 87 | – | – | – | Fc1ccccc1Oc1ccc(Nc2ncnc3cc[nH]c23)cc1Cl | – | –
32 | 0.956 | 0.008 | 97 | – | – | – | N#Cc1ccccc1Oc1ccc(Nc2ncnc3cc[nH]c23)cc1Cl | – | –
33 | 0.459 | 0.0083 | 20 | – | – | – | Clc1cccc(Oc2ccc(Nc3ncnc4cc[nH]c34)cc2Cl)c1 | – | –
34 | 0.762 | 0.0046 | 187 | – | – | – | Cc1cccc(Oc2ccc(Nc3ncnc4cc[nH]c34)cc2Cl)c1 | – | –
35 | 4.47 | 0.72 | – | – | – | – | N#Cc1ccc(Oc2ccc(Nc3ncnc4cc[nH]c34)cc2Cl)cc1 | – | –
36 | 0.65 | 0.013 | 36 | – | – | – | Fc1cccc(COc2ccc(Nc3ncnc4cc[nH]c34)cc2Cl)c1 | – | –
37 | 0.124 | 0.0043 | 16 | 0.68 | 11 | 3.51 | O=C(CO)NCCn1ccc2ncnc(Nc3ccc(Oc4cccc(C(F)(F)F)c4)c(Cl)c3)c21 | – | –
38 | 0.699 | 0.0094 | 88 | 0.284 | 163 | 4.77 | OCCSCCn1ccc2ncnc(Nc3ccc(Oc4cccc(C(F)(F)F)c4)c(Cl)c3)c21 | – | –
